Here are results for eight compounds from ChEMBL document CHEMBL1201862, “PubChem BioAssay data set” (2004).

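96-well plates; 48 h exposure; 5 concentrations. Endpoints by linear interpolation between flanking doses. Not reached: highest tested concentration assigned. GI50 = concentration required for 50% inhibition of growth.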 Calls of active or inactive are those of the source. Cut-off read from the data, not from the text of the source: active = GI50 up to about 1.1 µM and inactive = higher.

What all share (test): inhibition of tumour cell growth, NCI panel, 48 h
The subject of assay [1] is 786-0.
For assay [2], the system named is A498.
For assay [3], the system named is DLD-1.
In assay [4] the test system is DMS-273.
The subject of assay [5] is HCT-15.
Assay [6] deals with HOP-18.
The test system of assay [7] is M19-MEL.
The test system of assay [8] is Malme-3M.
The test system of assay [9] is OVCAR-4.
The subject of assay [10] is SF-268.
For assay [11], the system named is SK-MEL-2.
The test system of assay [12] is SK-MEL-5.
The subject of assay [13] is SN12C.
Assay [14] has as its system SNB-75.
Assay [15] has as its system SW-620.
In assay [16] the test system is UO-31.
The test system of assay [17] is Hs-578T.
Assay [18] deals with MDA-MB-435.
Assay [19] has as its system MDA-N.
In assay [20] the test system is PC-3.

With `O=C(Nc1nc2ncn(CCNCc3ccccc3)c2c(=O)[nH]1)c1ccccc1`, the GI50 in [1] is > 100 µM (inactive); in [2], > 100 µM (inactive); in assay [3], > 100 µM (inactive); in [4], > 100 µM (inactive); in assay [5], over 100 µM; in assay [6], > 100 µM (inactive). Moreover, the GI50 in assay [7] was > 100 µM (inactive); in assay [8], > 100 µM (inactive); in assay [9], > 100 µM (inactive); in assay [10], 63.8 µM (inactive); in assay [11], > 100 µM (inactive); in assay [12], > 100 µM (inactive). Also, the GI50 in [13] is > 100 µM (inactive); in assay [14], 90.2 µM (inactive); in assay [15] it was > 100 µM (inactive); in assay [16], 50.8 µM (inactive).

Consider `S=c1sc2cscc2s1`, for which the GI50 in assay [1] is 19.8 µM (inactive); in assay [2], 71.6 µM (inactive); in [3] it was 21 µM (inactive); in assay [4] it was 31.1 µM (inactive); in assay [5], 34 µM; in assay [6] it was 20.7 µM (inactive). Besides, the GI50 in assay [7] was 18.5 µM (inactive); in assay [8], 12.6 µM (inactive); in assay [9], 16.4 µM (inactive); in [10] it was 31.4 µM (inactive); in [11], 38 µM (inactive); in assay [12], 27.9 µM (inactive). Also, the GI50 in assay [13] was 32.6 µM (inactive); in assay [14] it was 16.7 µM (inactive); in assay [15], 20.7 µM (inactive); in assay [16] it was 19.1 µM (inactive).

Consider `C/C=C1\NC(=O)[C@H]2CSSCCC=C[C@H](CC(=O)N[C@H](C(C)C)C(=O)N2)OC(=O)[C@H](C(C)C)NC1=O`, for which the GI50 in assay [2] is 0.00015 µM (active); in assay [3] it was 0.0217 µM (active); in assay [4], 0.00673 µM (active); in assay [5] it was 0.0331 µM; in assay [6], 0.00412 µM (active); in assay [17], 0.0361 nM (active). Besides, the GI50 in assay [7] was 0.00252 µM (active); in assay [18], 10 pM (active); in assay [19] it was 0.0217 nM (active); in assay [9] it was 0.00201 µM (active); in [20], 0.0488 nM (active); in [10] it was 0.000318 µM (active). Moreover, the GI50 in assay [12] is 6.65e-05 µM (active); in assay [13], 0.000174 µM (active); in assay [14] it was 0.000207 µM (active); in assay [15] it was 0.000153 µM (active); in [16], 0.00731 µM (active).

Turning to `O=C1Nc2ccccc2Nc2ccncc21`, the GI50 in [2] is > 100 µM (inactive); in assay [3] it was > 100 µM (inactive); in assay [4] it was > 100 µM (inactive); in assay [5], over 100 µM; in [6], > 100 µM (inactive); in assay [7], > 100 µM (inactive). Also, the GI50 in [8] was > 100 µM (inactive); in assay [9], > 100 µM (inactive); in assay [10] it was > 100 µM (inactive); in assay [11], > 100 µM (inactive); in assay [12], > 100 µM (inactive); in assay [13], > 31.6 µM (inactive). Besides, the GI50 in [14] is > 76 µM (inactive); in [15], > 100 µM (inactive); in assay [16], > 100 µM (inactive).

For the compound `Cc1[nH]c(=O)[nH]c(=O)c1/C=C/C(=O)NC(CO)C[S+]([O-])C[S+](C)[O-]` (stereo not given), the GI50 was 21.8 µM (inactive) in [2]; 20.4 µM (inactive) in assay [3]; 21 µM (inactive) in [4]; 44.3 µM in [5]; 59.3 µM (inactive) in [6]; 15 µM (inactive) in assay [7]. In addition, the GI50 was 12.2 µM (inactive) in assay [8]; 2.17 µM (inactive) in [9]; 4.17 µM (inactive) in assay [10]; 13.5 µM (inactive) in assay [11]; 18 µM (inactive) in assay [12]; 14.2 µM (inactive) in assay [13]. Moreover, the GI50 is 7.18 µM (inactive) in [14], 38.6 µM (inactive) in assay [15] and 23.7 µM (inactive) in assay [16].

For `CC12CC3(C)CC(C)(C1)CC(N=[N+]=[N-])(C2)C3`, the GI50 in [1], in [2], in assay [3], in assay [4], in assay [6] and in assay [7] was > 100 µM (inactive) each time. Moreover, the GI50 in assay [8], in assay [9], in [10], in assay [11], in [12] and in assay [13] was > 100 µM (inactive) throughout. The GI50 in [14], in assay [15] and in assay [16] was > 100 µM (inactive) in each case.

As to `CN(C)C(=S)/N=c1\ss/c(=N\S(=O)(=O)c2ccccc2)n1-c1ccccc1`, the GI50 in assay [1] is 30.4 µM (inactive); in [2], 50.9 µM (inactive); in assay [3], 13.5 µM (inactive); in assay [4], 12.9 µM (inactive); in assay [5] it was 7.28 µM; in [6] it was 32.6 µM (inactive). Further, the GI50 in assay [7] was 19.4 µM (inactive); in [8], 30.1 µM (inactive); in assay [9], 0.185 µM (active); in assay [10] it was 38.9 µM (inactive); in assay [11], 11.5 µM (inactive); in [12], 0.0653 µM (active). In addition, the GI50 in assay [13] was 33 µM (inactive); in assay [14], > 100 µM (inactive); in assay [15] it was 9.95 µM (inactive); in assay [16] it was 22 µM (inactive).

Turning to `O=C1C(c2ccc(C3=[N+]([O-])c4cc([N+](=O)[O-])ccc4C3=O)cc2)=[N+]([O-])c2cc([N+](=O)[O-])ccc21`, the GI50 in [1] is 58.9 µM (inactive); in [2], > 10 µM (inactive); in assay [3] it was > 10 µM (inactive); in assay [4], > 10 µM (inactive); in [5] it was over 10 µM; in [6] it was > 100 µM (inactive). Further, the GI50 in assay [7], in [8], in assay [9], in [11], in assay [12] and in assay [13] was > 10 µM (inactive) in each case. Besides, the figures for the GI50 in assay [14], in [15] and in assay [16] were 36.2 µM (inactive), > 10 µM (inactive) and > 10 µM (inactive), respectively.
